Laboratory results from patent US9649305B2, “PFKFB3 inhibitor and methods of use as an anti-cancer therapeutic” (ADVANCED CANCER THERAPEUTICS, LLC, priority 2012, dated 2017).
Where two headings read alike, the source gives them in different places.

Legend:
[1] = Maximum tolerated dose study; format: in vivo; conditions: 3 days on/3 days off schedule
Method: Several maximum tolerated dose studies and toxicology studies were performed and the results indicated PFK-158 is safer than PFK-015. Studies were performed in C57/B16 mice and SD rats.

[2] = system: SKOV-3; assay: Cancer cell proliferation, MTT assay; format: cell-based; conditions: Homo sapiens, SK-OV-3; SKOV-3, MTT assay, 48 hours
Method: (§1) The ability of PFK-158 to kill or inhibit the proliferation of cancer cells was measured using either the MTT assay, the alamarBlue® assay (Invitrogen, Grand Island, N.Y.), or the CellTiter Glo™ assay (Promega, Madison, Wis.) using 48 or 72 hours exposure.
(§2) Cells of the desired tumor cell line were plated at 2×10^5 cells/ml in 96 well plates. Twice the indicated concentrations of the compounds of the invention were added to cells the following day in an equal volume of media. 72 hours later, cells were lysed and subjected to ATP determination using the CellTiter-Glo™ Luminescent Cell Viability Assay kit. Experiments were performed in triplicate. When using the MTT assay or the alamarBlue® assay, the experimental conditions are essentially similar; at the end of the incubation period, 20 microliters of the MTT solution is added per well and the samples are incubated for an additional four hours, rinsed, and absorbance at 570 nm was measured. Results for the inhibition of cell proliferation are reported as the IC50 (the concentration resulting in 50% inhibition of proliferation of the cell population) and are listed in Table 5 below. Cell lines include lung, colon, prostate, breast, ovarian, and pancreatic cancer lines.

[3] = system: SW620; assay: Cancer cell proliferation, MTT assay; format: cell-based; conditions: Homo sapiens, SW-620, 48 hours
Method: as §1, §2

[4] = system: SK-BR-3; assay: Cancer cell proliferation, MTT assay; format: cell-based; conditions: Homo sapiens; SK-BR-3, MTT assay, 48 hours
Method: as §1, §2

[5] = system: A498; assay: Cancer cell proliferation, MTT assay; format: cell-based; conditions: Homo sapiens, 48 hours
Method: as §1, §2

[6] = system: lung cancer model, pancreatic cancer model, colon cancer model; assay: Tumor growth inhibition in mouse cancer models
Method: Studies determining efficacy of PFK-158 at inhibiting tumor growth in mouse cancer models were performed. These studies were carried out with PFK-158 alone and in combination with compounds currently used in the treatment of cancer patients. Studies were performed in a lung cancer model, a pancreatic cancer model, and in a colon cancer model.
Efficacy of PFK-158 was studied in vivo in tumor models. Several tumor models were used in these studies (the Lewis lung carcinoma, or LLC model, the CT-26 colon carcinoma tumor model, or the BXPC3 pancreatic cancer model). The experimental protocol for the LLC study is described below. Subsequent to subcutaneous inoculation of tumor cells, tumors started to develop and once tumors reached the desired volume of 100-125 mm^3 on average, treatment was initiated. Tumor volume was monitored in both groups and the average for both the control and treatment groups was measured three times a week, as well as body weights.
Briefly, normal female C57BL/6 mice at 7-8 weeks of age were used for the study. Mice were housed in microisolator housing, with food and water provided as libitum, and quarantined for 4 days prior to the initiation of the study. LLC cells were maintained in a monolayer culture in DMEM medium supplemented with 10% heat inactivated fetal calf serum, 100 U/ml penicillin and 100 μg/ml streptomycin, and L-glutamine (2 mM) at 37° C. in an atmosphere of 5% CO2 in air. The tumor cells were routinely sub-cultured twice a week. The cells growing in an exponential phase were harvested and counted for tumor inoculation. Each mouse was inoculated subcutaneously at the right flank with the LLC tumor cells (3×10^5) in 0.1 ml of PBS for tumor development. When athymic nude mice were used, as for the BxPC3 model, then the strain of mice is slightly different. Furthermore, the use of Matrigel supports tumor development, meaning that cells are suspended in 100 μl of a mixture of medium/Matrigel (1:1) and are then subcutaneously implanted in the right flank region. Animals were monitored for tumor growth daily after cell implantation. When tumor volumes reached approximately 100-125 mm^3, mice were randomized into groups of 8 mice each using only mice having tumor volumes closest to the mean value. Tumor volumes were measured using the formula V=L×W×H×π/6, where L and W represent the longer and shorter diameters of the tumor and H represents the height of the tumor. Treatment began following randomization. PFK-158 was administered IP at a dose of 60 mg/kg on days 1, 3, 5, 7, 9, 11, and 13.
Similar protocols were used for the other studies using different models; differences included the use of Balbc/nude mice; administering larger number of cancer cells; and use of Matrigel.

[7] = IV pharmacokinetics in mice; format: in vivo, Balbc mice
Method: The pharmacokinetic (PK) parameters for PFK-158 were determined in mice following IV (intravenous) administration in mice and rats. A typical study design includes six animals (male or female) 7 to 8 weeks old.
Mouse pharmacokinetic properties using a dose of 5 mg/kg were determined after IV administration using a 10% DMSO, 10% PEG-200, 10% Solutol:ethanol (1:1) and 70% D5W solution or any other pharmaceutically acceptable parenteral formulation. Blood samples were collected at different intervals. Plasma samples were extracted and analyzed using an LC-MS/MS method. Similar protocols were used for the rat PK study (Sprague Dawley rats; 30 mg/kg), although the formulation for rat PK studies differed (30% Captisol, pH 3.0 solution). Time vs. plasma concentration plots were prepared as shown in FIGS. 4 (BalbC mice) and 5 (SD rats), respectively. Pharmacokinetic parameters were calculated and are provided below in Table 7.

[8] = biological target: PFKFB3 (Homo sapiens, UniProt Q16875); assay: Enzymatic activity of PFKFB3 in cells (F2,6BP levels, Van Schaftingen method); format: cell-based; design: endogenous in cells; host or cells: Jurkat cells
Chain of PFKFB3 (Q16875 whole entry): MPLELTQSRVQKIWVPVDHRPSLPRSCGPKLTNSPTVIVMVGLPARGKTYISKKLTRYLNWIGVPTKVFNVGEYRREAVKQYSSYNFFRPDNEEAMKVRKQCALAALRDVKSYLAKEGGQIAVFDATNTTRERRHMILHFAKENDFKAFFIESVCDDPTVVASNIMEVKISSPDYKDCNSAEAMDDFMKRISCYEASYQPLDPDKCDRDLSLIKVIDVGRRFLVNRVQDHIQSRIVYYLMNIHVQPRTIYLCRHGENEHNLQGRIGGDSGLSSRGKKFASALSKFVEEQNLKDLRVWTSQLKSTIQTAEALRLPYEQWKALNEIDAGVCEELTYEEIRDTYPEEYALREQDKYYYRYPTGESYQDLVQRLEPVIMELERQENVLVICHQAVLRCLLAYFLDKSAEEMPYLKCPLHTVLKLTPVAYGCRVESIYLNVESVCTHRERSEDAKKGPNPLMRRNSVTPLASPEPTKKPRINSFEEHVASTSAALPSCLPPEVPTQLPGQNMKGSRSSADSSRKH
Method: Inhibition of PFKFB3 can also be measured in cells by measuring fructose-2,6-biphosphate levels according to the Van Schaftingen method (Eur. J. of Biochem, 129: 191 (1982)). This method enables measurement of the inhibition in a cellular environment, a model more relevant than the pure recombinant protein. Briefly, Jurkat cells were plated at 1×10^5 cells/mL and incubated with different concentrations of PFK-158 for 3 hours. Samples were collected and cells were lysed. Extracts were characterized as described in previous reports and normalized to protein concentration.

[9] = system: LLC tumor; assay: Lewis lung carcinoma (LLC) model; format: in vivo; conditions: IP 60 mg/kg on days 1, 3, 5, 7, 9, 11, 13
Excerpt: Treatment began following randomization.

[10] = Table 7, Mouse (5 mg/kg), IV, Balbc mice
[11] = mouse, plasma, 5 mg/kg, Table 2, Balbc mice, IV dosing

Question: With `O=C(/C=C/c1ccc2ccc(C(F)(F)F)cc2n1)c1ccncc1` [PFK-158, (E)-1-(pyridyn-4-yl)-3-(7-(trifluoromethyl)quinolin-2-yl)-prop-2-en-1-one] as the compound, how does the MTD ([1]; C57/B16, mouse, in vivo, read-out: MTD) read?
Answer: Its MTD is over 45 mg/kg.

Question: What about the MTD ([1]; Table 4, body weight loss superior to 10% or death) of the same compound?
Answer: The MTD was “Not reached, >45 mg/kg”.

Question: And the IC50 [2]?
Answer: The IC50 was 2620 nM.

Question: What about the IC50 [3] of the same compound?
Answer: The IC50 was 2670 nM.

Question: What about the IC50 [4] of the same compound?
Answer: Its IC50 is 1600 nM.

Question: And the IC50 [5]?
Answer: Its IC50 is 3510 nM.

Question: What about the tumor growth inhibition ([6]; lung, pancreatic and colon cancer mouse models) of the same compound?
Answer: Its tumor growth inhibition is 50% to 70.

Question: What about the body weight loss ([6]; mouse, in vivo) of the same compound?
Answer: Its body weight loss is “without noticeable body weight loss or death”.

Question: And the “effect of combination with other chemotherapeutic agents” value ([6]; tumor models, FIGS. 6-8)?
Answer: The value was “additive or synergistic effect”.

Question: And the “AUC(0-inf)” value [7, 10]?
Answer: The value was 3,235 ng · h/ml.

Question: And the Cmax [7, 10]?
Answer: The Cmax was 4,176 ng/mL.

Question: And the T1/2b [7, 10]?
Answer: The T1/2b was 10.4 h.

Question: What about the AUC(0-inf) ([7]; Table 9, BalbC mice, IV dosing) of the same compound?
Answer: The AUC(0-inf) was 3235 ng·h/mL.

Question: And the T1/2 ([7]; Table 9, BalbC mice, IV dosing)?
Answer: Its T1/2 is 10.5 h.

Question: What about the clearance [7, 11] of the same compound?
Answer: The clearance was 26 mL/min/kg.

Question: And the half-life [7, 11]?
Answer: Its half-life is 10.5 h.

Question: And the AUC(0-inf) ([7]; mouse, plasma, 5 mg/kg, Table 2, Balbc mice, IV dosing, read-out: AUC0-inf)?
Answer: The AUC(0-inf) was 3240 ng·h/mL.

Question: What about the Cmax ([7]; mouse, plasma, 5 mg/kg, Table 2, Balbc mice, IV dosing, read-out: Cmax) of the same compound?
Answer: The Cmax was 4180 ng/mL.

Question: What about the IC50 ([8]; FIG. 3, Jurkat cells, 3 hours, read-out: IC50, PFKFB3 in cells by fructose-2,6-biphosphate levels) of the same compound?
Answer: The IC50 was 1600 ± 800 nM.

Question: And the IC50 ([8]; Table 1, F2,6BP levels, Jurkat cells, read-out: IC50, Enzymatic activity of PFKFB3 in cells)?
Answer: The IC50 was 1600 ± 800 nM.

Question: And the IC50 ([8]; Table 6, Jurkat cells, read-out: IC50 Cellular PFKFB3 (F2,6BP))?
Answer: Its IC50 is 1620 ± 400 nM.

Question: And the IC50 ([8]; Table 8, read-out: IC50, Enzymatic activity of PFKFB3 in cells)?
Answer: The IC50 was 1600 ± 800 nM.

Question: And the “body weight loss (tolerability)” value [9]?
Answer: The value was “no noticeable body weight loss”.
